Assay results: the NIST ThermoML archive (doi:10.1016/j.jct.2017.05.026)
Numbers after ± are expanded uncertainties.

Assays:
[1] = xn = mol fraction of the nth substance listed; conditions: 298 K, 100 kPa, Crystal, X-ray diffraction
[2] = excess molar enthalpy (molar enthalpy of mixing); xn = mol fraction of the nth substance listed; conditions: 298 K, 100 kPa, Crystal, Calvet calorimetry

SMILES | mass density ([1]; x1 = 0.2209) [kg/m3] | mass density ([1]; x1 = 0.4319) [kg/m3] | mass density ([1]; x1 = 0.7519) [kg/m3] | excess molar enthalpy ([2]; x1 = 0.2209) [kcal/mol] | excess molar enthalpy ([2]; x1 = 0.4319) [kcal/mol] | excess molar enthalpy ([2]; x1 = 0.7519) [kcal/mol] | mass density ([1]; x1 = 0.0847) [kg/m3] | mass density ([1]; x1 = 0.1557) [kg/m3] | mass density ([1]; x1 = 0.2937) [kg/m3] | excess molar enthalpy ([2]; x1 = 0.0847) [kcal/mol] | excess molar enthalpy ([2]; x1 = 0.1557) [kcal/mol] | excess molar enthalpy ([2]; x1 = 0.2937) [kcal/mol]
[O-2].[O-2].[Th+4] [thorium dioxide] + [O-2].[O-2].[U+4] | 10730 ± 90 | 10510 ± 90 | 10070 ± 90 | -1.65 ± 0.765 | 0.37 ± 1.12 | -0.282 ± 0.669 |  |  |  |  |  | 
[O-2].[O-2].[Zr+4] [zirconium oxide] + [O-2].[O-2].[U+4] |  |  |  |  |  |  | 10630 ± 90 | 10260 ± 90 | 9570 ± 70 | -2.18 ± 1 | -2.12 ± 0.837 | 0.194 ± 0.765
